Read-outs that look alike come from different tables or passages of the source.
Experiments:
normal mouse skin [1] = assay: Activity assay hyperproliferative disorders: epidermal thickening (acanthosis) in hairless mice, oral; assay type: in vivo, hairless mice (Moro hr/hr); conditions: for ED50: Mus musculus, read-out: ED50 (dose causing halfmaximal epidermal thickening)
Description: Activity Assay Hyperproliferative Disorders
(§1) Orally administered vitamin D analogues can lead to epidermal thickening (acanthosis) in hairless mice. […] Compounds of formula I were tested for 4 days at different dosages in order to detect compounds which show this epidermal effect at subtoxic and non-toxic doses (dosage leading to slight or no weight loss). […] The calcitriol data were obtained from animals treated for three days.
(§2) Hairless mice (Moro hr/hr) received daily administrations of the test compound in arachis oil by gavage for 4 days, using 2-5 different dosages (3 fold increments; 2 animals per dosage group). The mice were sacrificed at day 5 and skin biopsies were taken, fixed in formalin and treated for histological evaluation. The epidermal thickness was measured at standard magnification using an occular grid. Daily measurements of body weight allows to judge toxicity (calcemic liability) and determine the non-toxic dose level defined as the dose which is tolerated without weight loss.
ED50 : dose (μg/kg) causing halfmaximal epidermal thickening
TI shift: shift in "therapeutic index", is defined as ratio ED50 /HT
for calcitriol divided by the ratio ED50 /HTP for the test compound

[2] = Oral tolerance (calcemic liability) by body weight in hairless mice; set-up: species or system hairless mice (Moro hr/hr); conditions: mouse, in vivo, oral gavage in arachis oil, daily for 4 days, read-out: HTDp.o. (highest tolerated oral dose without weight loss)
Description: as §1, §2
HTDp.o.: highest tolerated oral dose (μg/kg) without weight loss

normal mouse skin [3] = conditions: known antipsoriatics; cited from earlier work
[4] = 96 h, oral gavage in arachis oil, daily for 4 days

SMILES	ED50 (normal mouse skin [1]; [4])	ratio ED50/HTD (normal mouse skin [1]; oral, 4 days)	MTD [2]	epidermal thickening effect on normal mouse skin, in words (normal mouse skin [3])	skin effect (epidermal thickening) on 4 days dosing, in words (normal mouse skin [1]; 4 days)	ED50 (normal mouse skin [1]; 72 h, oral, calcitriol treated for three days)	ratio ED50/HTD (normal mouse skin [1]; oral, calcitriol treated for three days)
CC(C#Cc1ccccc1C(C)(C)O)[C@H]1CC[C@H]2/C(=C/C=C3C[C@@H](O)C[C@H](O)C3)CCC[C@]12C (stereo partly drawn) [Example 6, (7E)-(1R,3R)-23-[2-(1-Hydroxy-1-methyl-ethyl)-phenyl]-19,24-dinor-9,10-seco-chola-5,7-dien-22-yne-1,3-diol]	2.5 mg/kg	63	0.04 mg/kg	–	–	–	–
C=C1/C(=C\C=C2/CCC[C@]3(C)[C@@H]([C@@H](C)C#Cc4cccc(C(C)(C)O)c4)CC[C@@H]23)C[C@@H](O)C[C@@H]1O [Example 14, (5Z,7E)-(1S,3R,20R)-23-[3-(1-Hydroxy-1-methyl-ethyl)-phenyl)-24-nor-9,10seco-chola-5,7,10(19)-trien-22-yne-1,3-diol]	7 mg/kg	7	1 mg/kg	–	–	–	–
C=C1/C(=C\C=C2/CCC[C@]3(C)[C@@H]([C@@H](C)C#Cc4ccccc4C(C)(C)O)CC[C@@H]23)C[C@@H](O)C[C@@H]1O [Example 16, (5Z,7E)-(1S,3R,20R)-23-[2-(1-Hydroxy-1-methyl-ethyl)-phenyl)-24-nor-9,10-seco-chola-5,7,10(19)-trien-22-yne-1,3-diol]	10 mg/kg	5	2 mg/kg	–	–	–	–
C=C1/C(=C\C=C2/CCC[C@]3(C)[C@@H]([C@H](C)CCCC(C)(C)O)CC[C@@H]23)C[C@@H](O)C[C@@H]1O [calcitriol, 1,25-dihydroxycholecalciferol, reference compound]	–	–	–	show this effect on normal mouse skin	could not be dosed for 4 days high enough to obtain this skin effect	0.5 mg/kg	500
